pIC50: −log10 of the molar value. Like-named read-outs stand apart in the source and are kept apart here.
Legend:
[1] = test system: Cullin-3 (CUL3) neddylation; assay: AlphaLISA assay for Cullin-3 (CUL3) neddylation in TF 1 cells; format: cell-based; details: Homo sapiens, 3 hours treatment
Method in brief: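 TF 1 cells in unsupplemented IMDM treated with compound concentrations for 3 h, then lysed. CUL3 neddylation detected by AlphaLISA (biotinylated anti-NEDD8, anti-CUL3 acceptor beads overnight, streptavidin donor beads 1 h); normalized to vehicle (0%) and 1 μM DI-1548 (100%), IC50 from Hill fits.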

[2] = target: DCN1 (DCUND1) protein PONY domain (Homo sapiens (Human), UniProt Q96GG9); assay: TR-FRET assay, DCN1 binding with FAM-labeled probe; details: for IC50: TR FRET IC50 1 hr (nM)
Chain of DCN1 (DCUND1) protein PONY domain (Q96GG9 60-248): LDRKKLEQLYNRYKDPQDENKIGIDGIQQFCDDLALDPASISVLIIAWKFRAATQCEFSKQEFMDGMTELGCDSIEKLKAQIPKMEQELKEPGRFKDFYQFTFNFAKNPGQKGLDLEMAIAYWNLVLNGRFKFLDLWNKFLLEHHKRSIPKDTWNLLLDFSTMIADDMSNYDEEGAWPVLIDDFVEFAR
Method in brief: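 Binding was read as the TR-FRET ratio between a FAM-tagged inhibitor probe and Tb-labeled biotinylated E. coli-expressed DCN1 PONY domain, measured 1, 5 and 24 h after compound addition. The two setups used 5 nM protein/20 nM FAM-probe or 0.31 nM protein/900 nM total probe (100 nM labeled), in TritonX buffer with 200 mM NaCl.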

[3] = 24 hr after treatment with compound, read-out: TR FRET IC50 24 hr
[4] = read-out: TR FRET IC50 1 hr, 1 hr after treatment with compound
[5] = 1 hr after treatment with compound

Compound	pIC50 ([1]; TF-1, 3 h)	pIC50 [2, 3]	pIC50 [2, 4]	IC50 [2, 5] [nM]	pIC50 [1]
CCN1C(=O)[C@@H](NC(=O)c2cccc(C(F)(F)F)c2)[C@@H](C2CC2)c2c(C(=O)N3CCS(=O)(=O)C[C@@H]3C#N)nn(-c3ccccc3)c21 [Compound I-438, N-((4S,5S)-3-((S)-3-cyano-1,1-dioxidothiomorpholine-4-carbonyl)-4-cyclopropyl-7-ethyl-6-oxo-1-phenyl-4,5,6,7-tetrahydro-1H-pyrazolo[3,4-b]pyridin-5-yl)-3-(trifluoromethyl)benzamide]	≥ 7.00	≥ 6.70	≥ 6.70	–	–
CCN1C(=O)[C@@H](NC(=O)c2cccc(C(F)(F)F)c2)[C@@H](c2ccc(F)cn2)c2c([C@@H](C)NC#N)nn(-c3ccccc3)c21 [Compound I-439]	≥ 7.00	≥ 6.70	≥ 6.70	–	–
CCN1C(=O)[C@@H](NC(=O)c2cccc(C(F)(F)F)c2)[C@@H](C2CC2)c2c(C(=O)N3[C@H](C#N)C[C@@H]4C[C@@H]43)nn(C3CCOCC3)c21 [Compound I-441]	< 6.00	6.00 to 6.70	–	1000 to 3000	–
CCN1C(=O)[C@@H](NC(=O)c2cccc(C(F)(F)F)c2)[C@@H](C2CC2)c2c(C(=O)N3[C@@H]4C[C@@H]4C[C@@H]3C#N)nn(C3CCOCC3)c21 [Compound I-442]	< 6.00	6.00 to 6.70	–	1000 to 3000	–
CCN1C(=O)[C@@H](NC(=O)c2cccc3c2OCC3)[C@@H](C2CC2)c2c(C(=O)N3[C@H](C#N)C[C@H]4C[C@H]43)nn(C3CCOCC3)c21 [Compound I-445]	–	≥ 6.70	≥ 6.70	–	≥ 7.00
CCN1C(=O)[C@@H](NC(=O)c2cccc3[nH]cnc23)[C@@H](C2CC2)c2c(C(=O)N3[C@H](C#N)C[C@H]4C[C@H]43)nn(C3CCOCC3)c21 [Compound I-446]	< 6.00	5.52 to 6.00	–	1000 to 3000	–
CCN1C(=O)[C@@H](NC(=O)c2cccc(C(F)(F)F)c2)[C@@H](c2ccc(F)cc2)c2c(C(=O)N3[C@H](C#N)C[C@@H]4C[C@@H]43)nn(-c3ccccc3)c21 [Compound I-450]	6.00 to 7.00	5.52 to 6.00	–	1000 to 3000	–
CCN1C(=O)[C@@H](NC(=O)c2nccc(C(F)(F)F)n2)[C@H](c2ccc(F)cc2)c2c(CNC(=O)CC#N)nn(-c3ccccc3)c21 [Compound I-452, N-((4R,5S)-3-((2-cyanoacetamido)methyl)-7-ethyl-4-(4-fluorophenyl)-6-oxo-1-phenyl-4,5,6,7-tetrahydro-1H-pyrazolo[3,4-b]pyridin-5-yl)-4-(trifluoromethyl)pyrimidine-2-carboxamide]	< 6.00	5.52 to 6.00	–	1000 to 3000	–
CCN1C(=O)[C@H](NC(=O)c2cccc(C(F)(F)F)c2)[C@H](c2ccc(F)cc2)c2c(C(=O)N3CCNC[C@H]3C#N)nn(-c3ccccc3)c21 [Compound I-453]	< 6.00	6.00 to 6.70	–	1000 to 3000	–
CCN1C(=O)[C@@H](NC(=O)c2cccc(C(F)(F)F)c2)[C@@H](C2CC2)c2c(C(=O)N3CCC[C@H]3C#N)nn(C3CC3)c21 [Compound I-454]	≥ 7.00	6.00 to 6.70	–	1000 to 3000	–
CCCn1nc(C(=O)N(CC#N)C2CC2)c2c1N(CC)C(=O)[C@H](NC(=O)c1cccc(C(F)(F)F)c1)[C@@H]2C1CC1 [Compound I-455]	< 6.00	5.52 to 6.00	–	1000 to 3000	–
CCN1C(=O)[C@H](NC(=O)c2cccc(C(F)(F)F)c2)[C@H](c2ccc(F)cc2)c2c(C(=O)N3CC[C@@H]3C#N)nn(-c3ccccc3)c21 [Compound I-457]	< 6.00	5.52 to 6.00	–	1000 to 3000	–
CCN1C(=O)[C@@H](NC(=O)c2nccc(C(F)(F)F)n2)[C@H](c2ccc(F)cc2)c2c(CNC(=O)/C=C/C(=O)N(C)C)nn(-c3ccccc3)c21 [Compound I-460]	< 6.00	6.00 to 6.70	–	200 to 1000	–
CCN1C(=O)[C@H](NC(=O)c2cccc(C(F)(F)F)c2)[C@H](c2ccc(F)cc2)c2c(C(=O)N3[C@H](C#N)C[C@@H]4C[C@@H]43)nn(-c3ccccc3)c21 [Compound I-463]	< 6.00	5.52 to 6.00	–	1000 to 3000	–
CCN1C(=O)[C@@H](NC(=O)c2cccc(C(F)(F)F)c2)[C@@H](c2ccc(F)cc2)c2c(C(=O)N3CS(=O)(=O)C[C@H]3C#N)nn(-c3ccccc3)c21 [Compound I-465]	≥ 7.00	≥ 6.70	≥ 6.70	–	–
CCCn1nc(C(=O)N2CCC[C@H]2C#N)c2c1N(CC)C(=O)[C@@H](NC(=O)c1cccc(C(F)(F)F)c1)[C@H]2C1CC1 [Compound I-467]	6.00 to 7.00	≥ 6.70	–	1000 to 3000	–
CCN1C(=O)[C@@H](NC(=O)c2cccc(C(F)(F)F)c2)[C@@H](C2CCCC2)c2c(C(=O)N3CCC[C@H]3C#N)nn(C3CCOCC3)c21 [Compound I-469]	≥ 7.00	≥ 6.70	–	1000 to 3000	–

Compound	pIC50 ([1]; TF-1, 3 h)	pIC50 [2, 3]	pIC50 [2, 4]	IC50 [2, 5] [nM]	pIC50 [1]
CCN1C(=O)[C@@H](NC(=O)c2cccc(C(F)(F)F)c2)[C@@H](c2ccc(F)cc2)c2c(C(=O)N(C)[C@H](C#N)CCN(C)C3COC3)nn(C3CCOCC3)c21 [Compound I-470]	≥ 7.00	≥ 6.70	≥ 6.70	–	–
COCCN1C(=O)[C@@H](NC(=O)c2cccc(C(F)(F)F)c2)[C@@H](C2CC2)c2c(C(=O)N3[C@H](C#N)C[C@H]4C[C@H]43)nn(C3CCOCC3)c21 [Compound I-474]	6.00 to 7.00	6.00 to 6.70	–	1000 to 3000	–
CCN1C(=O)[C@@H](NC(=O)CCc2ccccc2)[C@@H](C2CC2)c2c(C(=O)N3[C@H](C#N)C[C@H]4C[C@H]43)nn(C3CCOCC3)c21 [Compound I-476]	< 6.00	5.52 to 6.00	–	1000 to 3000	–
CCN1C(=O)[C@@H](NC(=O)c2cccc(C(F)(F)F)c2)[C@@H](C2CCCC2)c2c(C(=O)N(CC#N)C3CC3)nn(C3CCOCC3)c21 [Compound I-478]	6.00 to 7.00	≥ 6.70	–	1000 to 3000	–
CCCn1nc(C(=O)N2CCC[C@H]2C#N)c2c1N(CC)C(=O)[C@H](NC(=O)c1cccc(C(F)(F)F)c1)[C@@H]2c1ccc(F)cc1 [Compound I-479]	< 6.00	5.52 to 6.00	–	1000 to 3000	–
CCN1C(=O)[C@H](NC(=O)c2cccc(C(F)(F)F)c2)[C@H](c2ccc(F)cc2)c2c(C(=O)N3CCC[C@H]3C#N)nn(-c3cccc(OCCCN(C)C4COC4)c3)c21 [Compound I-480, N-((4R,5R)-3-((S)-2-cyanopyrrolidine-1-carbonyl)-7-ethyl-4-(4-fluorophenyl)-1-(3-(3-(methyl(oxetan-3-yl)amino)propoxy)phenyl)-6-oxo-4,5,6,7-tetrahydro-1H-pyrazolo[3,4-b]pyridin-5-yl)-3-(trifluoromethyl)benzamide]	< 6.00	5.52 to 6.00	–	1000 to 3000	–
CCN1C(=O)[C@@H](NC(=O)c2csc(C)c2)[C@@H](C2CC2)c2c(C(=O)N3[C@H](C#N)C[C@H]4C[C@H]43)nn(C3CCOCC3)c21 [Compound I-481]	–	≥ 6.70	≥ 6.70	–	≥ 7.00
CCN1C(=O)[C@@H](NC(=O)c2ccc3scnc3c2)[C@@H](C2CC2)c2c(C(=O)N3[C@H](C#N)C[C@H]4C[C@H]43)nn(C3CCOCC3)c21 [Compound I-483]	< 6.00	6.00 to 6.70	–	1000 to 3000	–
CCN1C(=O)[C@@H](NC(=O)c2cccc(C(F)(F)F)c2)[C@@H](c2ccc(F)cc2)c2c([C@@H](CO)NC#N)nn(-c3ccccc3)c21 [Compound I-487]	6.00 to 7.00	≥ 6.70	–	200 to 1000	–
CCN1C(=O)[C@@H](NC(=O)c2cccc(C(F)(F)F)c2)[C@@H](c2ccc(F)cc2)c2c([C@H](CCCO)NC#N)nn(-c3ccccc3)c21 [Compound I-489]	≥ 7.00	≥ 6.70	–	200 to 1000	–
CCN1C(=O)[C@@H](NC(=O)c2cccc(C(F)(F)F)c2)[C@@H](c2ccc(F)cc2)c2c(CNC/C=C/C(=O)N(C)C)nn(-c3ccccc3)c21 [Compound I-490]	6.00 to 7.00	≥ 6.70	≥ 6.70	–	–
CCN1C(=O)[C@@H](NC(=O)c2cccc(C(F)(F)F)c2)[C@@H](C2CC2)c2c(C(=O)N(C)C(C)C#N)nn(C3CC3)c21 (stereo partly drawn) [Compound I-492]	≥ 7.00	6.00 to 6.70	–	200 to 1000	–
CCN1C(=O)[C@H](NC(=O)c2cccc(C(F)(F)F)c2)[C@H](c2ccc(C)cc2)c2c(C(=O)N(C)CC#N)nn(C3CC3)c21 [Compound I-494]	< 6.00	5.52 to 6.00	–	1000 to 3000	–
CCN1C(=O)[C@@H](NC(=O)c2nccc(C(F)(F)F)n2)[C@H](c2ccc(F)cc2)c2c(CNC(=O)/C=C/C(=O)N3CCCC3)nn(-c3ccccc3)c21 [Compound I-495]	< 6.00	6.00 to 6.70	–	200 to 1000	–
CCN1C(=O)[C@@H](NC(=O)c2cccc(C(F)(F)F)c2)[C@@H](c2ccc(F)cc2)c2c(CN(C#N)CCCN3CCOCC3)nn(-c3ccccc3)c21 [Compound I-496]	≥ 7.00	≥ 6.70	≥ 6.70	–	–
CCN1C(=O)[C@@H](NC(=O)c2cccc(C(F)(F)F)c2)[C@@H](c2ccc(F)cc2)c2c([C@@H](CCC(O)CO)NC#N)nn(-c3ccccc3)c21 (stereo partly drawn) [Compound I-497]	≥ 7.00	≥ 6.70	≥ 6.70	–	–
C[C@@H](NC#N)c1nn(-c2ccccc2)c2c1[C@@H](c1ccc(F)cc1)[C@@H](NC(=O)c1cccc(C(F)(F)F)c1)C(=O)N2CCO [Compound I-498]	< 6.00	5.52 to 6.00	–	1000 to 3000	–
